Experimental data published in patent publication US12319681B2, “Tripartite androgen receptor eliminators, methods and uses thereof” (SPG Therapeutics, Inc., priority 2017, dated 2025).

Tests used:
androgen receptor (AR) [1] = biological target: T1, androgen receptor (AR) (Homo sapiens, UniProt P10275); test: Keratinocyte AR luciferase reporter gene assay (Example 10); type: cell-based; details: 24 h, read-out: Gene Activity Reduction
T1 construct: human keratinocytes transfected with an AR luciferase reporter gene; endogenous in cells; host or cells: normal human adult primary epidermal keratinocytes (ATCC PCS-200-011)
T1 sequence (P10275 1-920): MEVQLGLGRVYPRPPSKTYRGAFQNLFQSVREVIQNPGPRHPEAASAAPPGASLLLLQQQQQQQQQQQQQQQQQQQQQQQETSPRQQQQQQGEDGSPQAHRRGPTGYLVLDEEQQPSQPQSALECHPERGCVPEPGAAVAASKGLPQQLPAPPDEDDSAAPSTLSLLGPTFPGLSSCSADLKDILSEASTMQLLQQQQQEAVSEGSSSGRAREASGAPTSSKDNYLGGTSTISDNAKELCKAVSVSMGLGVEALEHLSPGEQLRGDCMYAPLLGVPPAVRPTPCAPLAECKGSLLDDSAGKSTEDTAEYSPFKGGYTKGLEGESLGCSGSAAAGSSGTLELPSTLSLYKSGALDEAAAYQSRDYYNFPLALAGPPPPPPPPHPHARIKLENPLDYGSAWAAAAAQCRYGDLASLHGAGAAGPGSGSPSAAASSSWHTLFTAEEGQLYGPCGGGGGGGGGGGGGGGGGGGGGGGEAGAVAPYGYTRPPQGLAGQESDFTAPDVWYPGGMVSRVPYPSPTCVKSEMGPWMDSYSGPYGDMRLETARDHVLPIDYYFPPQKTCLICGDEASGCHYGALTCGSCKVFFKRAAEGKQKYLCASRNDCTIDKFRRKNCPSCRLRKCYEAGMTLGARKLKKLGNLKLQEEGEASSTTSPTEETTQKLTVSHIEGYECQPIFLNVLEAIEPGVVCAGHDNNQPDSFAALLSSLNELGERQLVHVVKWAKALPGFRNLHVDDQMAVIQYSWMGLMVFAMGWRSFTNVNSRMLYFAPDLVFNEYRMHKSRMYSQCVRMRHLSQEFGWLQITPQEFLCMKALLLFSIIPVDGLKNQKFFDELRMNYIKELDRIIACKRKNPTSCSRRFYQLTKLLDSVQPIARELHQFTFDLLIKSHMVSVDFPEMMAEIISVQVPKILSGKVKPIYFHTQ
Method: (§1) Each ARE tested was prepared in DMSO. […] Ethanol concentrations in media never exceeded 0.1%.
To assess ARE-mediated inhibition, an AR luciferase assay was performed. After washing cells with 1×PBS, 20 μL lysis buffer (25 mM Tris/phosphate, 4 mM EGTA, 1% Triton, 10% glycerol, 2 mM DTT) was added per well, incubated for 5 minutes with gentle shaking and store at −80° C. On the day of assay, the plates were thawed to ambient temperature and 80 μL of assay buffer (25 mM glycylglycine, 15 mM MgCl2. 5 mM ATP, 0.1 mg/ml BSA) was added to each well. Plates are then processed on a microplate reader (POLARstar Omega) by injecting 100 μL of 1 mM D-luciferin per well, followed by chemiluminescence measurement of 3 seconds at onset of injection. Luciferase activity was determined, measured, and normalized to Relative Light Units (RLU). AR reporter gene activity reduction values were calculated as follows: AR reporter gene activity=1−(average signal (treatment group)/average signal (treatment group without drug).

androgen receptor (AR) [2] = biological target: T1, androgen receptor (AR); test: Keratinocyte AR protein level ELISA (Example 10); type: cell-based; details: 24 h, read-out: AR Reduction
Method: as §1
To assess levels of AR, an ELISA was performed.

Q: For `CC12CCC(=O)C=C1C[C@@H](SC(=O)CC13CC4CC(CC(C4)C1)C3)C1C2CCC2(C)C1CC[C@@]21CCC(=O)O1` (some centres unmarked) [SPG-003], which inhibition at 0.1 µM (androgen receptor (AR) [1]) is on record?
A: Its inhibition at 0.1 µM is 21%.

Q: What about the inhibition at 1 µM (androgen receptor (AR) [1]) of the same molecule?
A: The inhibition at 1 µM was 31%.

Q: And the inhibition at 3 µM (androgen receptor (AR) [1])?
A: The inhibition at 3 µM was 50%.

Q: And the inhibition at 10 µM (androgen receptor (AR) [1])?
A: The inhibition at 10 µM was 93%.

Q: And the inhibition at 0.1 µM (androgen receptor (AR) [2])?
A: The inhibition at 0.1 µM was 6%.

Q: And the inhibition at 1 µM (androgen receptor (AR) [2])?
A: The inhibition at 1 µM was 19%.

Q: And the inhibition at 3 µM (androgen receptor (AR) [2])?
A: The inhibition at 3 µM was 26%.

Q: And the inhibition at 10 µM (androgen receptor (AR) [2])?
A: Its inhibition at 10 µM is 65%.
